US20090324718A1, “IMATINIB COMPOSITIONS” (priority 2006, published 2009)
Where a name gives a salt, the structure may show the parent alone.

Experiments:
Assay type in all cases: physicochemical
[1] = Physical stability on storage: appearance score (color and texture); design: key to Appearance, scale: 1 = good 5 = bad / Appearance / Appearance t = 7 days / Appearance t = 14 days: 1=very good (no change in color and texture of the sample); 5=not good (changed both in color (became yellow) and in texture (absorbed water and reduced shine of sample)); conditions: for Appearance t = 7 days / Appearance t = 14 days / Appearance t = 28 days: 40° C./75% RH; for Appearance, scale: 1 = good 5 = bad: 55° C./75% RH Day 0; for Appearance: 55° C./75% RH Day 5
Source text: As used herein the term “physical stability” of a composition means the appearance of the composition is substantially unchanged and/or the hygroscopicity is low.
The term “appearance” as used herein describes the color and texture of a composition. The color of a composition according to a scored scale, as assessed by one of ordinary skill in the art in view of the following guidelines. A discoloration score of 1 indicates material without discoloration, whereas a discoloration score of 5 indicates severe discoloration (almost complete discoloration) relative to the color of the material as obtained after preparation and prior to storage. In the present invention the composition preferably has a white color immediately after processing and generally remains white if stable. Discoloration to a yellow color is typical when the composition is unstable. Similarly, a texture score of 1 indicates material having an uniform and smooth texture, whereas a texture score of 5 indicates a nonuniform and rough texture. The texture may be determined by visual inspection by one of ordinary skill in the art. For both discoloration and texture, scores 2 to 4 represent 5 “some or slight (change)” for a score of 2, “medium (change)” for a score of 3, and “substantial (change)” for a score of 4.
(§1) The table below summarizes all test results (Assay, IDD, weight gain, and appearance). The appearance data is scored from 1 to 5 (1=very good (no change in color and texture of the sample), see an example of “Score=1” in Table 2, example 10, Day 0, 5=not good (changed both in color (became yellow) and in texture (absorbed water and reduced shine of sample)), see an example of “Score=4-5” in Table 2, example 9, time Day 5), and is supported by pictures presented in Table 2.

[2] = Gain of weight (moisture uptake) on storage at 40° C./75% RH
Source text: Texture is often highly correlated with hygroscopicity. Water/moisture absorption tends to reduce shine, for example. Water hygroscopicity can be determined by weight gain analyses.
Embodiments of the invention are preferably packaged with a desiccant, such as silica. The container preferably has a high moisture barrier, examples of which are known in the art. In a preferred packaged pharmaceutical composition of the present invention an amount of desiccant which will assure a weight gain due to moisture of not more than (NMT) 5%, preferably 0.5%, more preferably 0.05%, is preferred in order to maintain a good appearance and low water absorption for a maximum period of time. For example, the weight gain of the packaged material of the present invention after storage (i) at a temperature of about 55° C. and about 75% relative humidity for 5 days, and/or (ii) at a temperature of about 40° C. and about 75% relative humidity for 30 days, is less than about 15%, preferably less than about 10%, more preferably less than about 5% by weight.

[3] = Chemical stability on storage: HPLC Assay and Impurities and Degradation Determination (IDD); conditions: for Chemical: Assay: HPLC; for Chemical: main deg: HPLC IDD
Description: The term “chemical stability” as used herein relates to the presence or absence of degradation products of the active pharmaceutical ingredient (API) as measure over time. Chemical stability is measured as the Assay of the material and/or the level of degradants. Stability is defined as having an Assay of at least about 90%, as determined by an HPLC assay method and/or having a minimum level of degradants, as determined by an HPLC Impurities and Degradation Determination (IDD) method over time. Preferably, a chemically stable composition as in the present inventor has an assay of at least 95%, more preferably at least 98%, as determined by an HPLC assay over time (storage time).
The stability of the examples described herein were tested using various analytical methods. One analytic method used is a determination using HPLC. The following HPLC method was used for the examples described below where HPLC was used as an analytic method.
as §1

[4] = Physical form of the active drug in the sample; conditions: 55° C./75% RH Day 0
[5] = Hygroscopicity of imatinib depending on the physical structure of the active drug

| Appearance t = 7 days [1] | Appearance t = 14 days [1] | Appearance t = 28 days [1] | Wt gain T = 7 days [2] [%] | Wt gain T = 14 days [2] [%] | Wt gain T = 28 days [2] [%] | Chemical: Assay ([3]; 55° C./75% RH Day 0) | Chemical: main deg ([3]; 55° C./75% RH Day 0) | Chemical: Assay ([3]; 55° C./75% RH Day 5) | Chemical: main deg ([3]; 55° C./75% RH Day 5) | Appearance, scale: 1 = good 5 = bad [1] | Appearance [1] | Physical [4] | hygroscopicity compared to crystalline material [5] | SMILES |
| --- | --- | --- | --- | --- | --- | --- | --- | --- | --- | --- | --- | --- | --- | --- |
| 1 | 1 | 2 | 12.42 | 7.79 | 8.86 | – | – | – | – | – | – | – | – | Cc1ccc(NC(=O)c2ccc(CN3CCN(C)CC3)cc2)cc1Nc1nccc(-c2cccnc2)n1 [Active drug (Crystalline 2) Packed with silica] [imatinib mesylate] |
| – | – | – | – | – | – | 97.5 | 0.12 | 98.8 | 0.12 | 1 | 1 | Alpha | – | Cc1ccc(NC(=O)c2ccc(CN3CCN(C)CC3)cc2)cc1Nc1nccc(-c2cccnc2)n1 [Active drug (Crystalline 1), imatinib mesylate] |
| 1 | 1-2 | 3 | 21.49 | 17.75 | 18.3 | 94.5 | 0.11 | 98.8 | 0.13 | 1 | 4 | – | – | Cc1ccc(NC(=O)c2ccc(CN3CCN(C)CC3)cc2)cc1Nc1nccc(-c2cccnc2)n1 [Active drug (Crystalline 2), imatinib mesylate] |
| – | – | – | – | – | – | 88.6 | 0.46 | 97.8 | 0.44 | 1 | 5 | amrph | much more hygroscopic | Cc1ccc(NC(=O)c2ccc(CN3CCN(C)CC3)cc2)cc1Nc1nccc(-c2cccnc2)n1 [Active drug (Amorphous), imatinib mesylate] |
